Data on 6 molecules can be found in patent US5508384A, “Polypeptide derived from a popamine receptor, and compositions and methods thereof” (New York University, priority 1993, dated 1996).

Series [1] is described as follows: Radioligand binding assay, polypeptide in DMPC small unilamellar vesicles. The settings on record: lipid:peptide 147:1, 1 h at 25° C., pH 7.4, FIG. 7. The method, then:
Preparation of Small Unilamellar Visicles. Polypeptides were incorporated into DMPC vesicles at lipid:peptide ratio of 147:1 in the followinq manner: polypept ide in HFIP was mixed with dimyrystyroyl-phosphatidylcholine (synthetic) (DMPC) in dry chloroform and dried to a film with a stream of dry nitrogen at 0° C. This residue was then dried further overnight under a vacuum (1×10^-2 torr). The residue was then hydrated in […] and sonicated for a 30-min period under nitrogen at 0° C. The suspension was sedimented for a 30-min at 100,000 q (4° C.) to remove any residual titanium particles and large unilamellar vesicles The supernatant was removed and sedimented once more at 159,000 g for a 45 min period at 4° C. The supernatant in the lower portion was used immediately.
Radioligand Bining Assays. A 0.50 mL volume of 1.00 nM [^3 H]-spiperone(New England specific activity […]) was added to assay tubes which contained 0.5 mL lipid/peptide supernatant, 0.5 mL Tris buffer pH 7.4 and 0.5 mL of cold drug for a final volume of 2.0 mL. […]
Filters were then washed with 6.0 mL of cold 50 mM Tris-HCl buffer, pH 7.40. For detection of radioactivity, filters were placed in 2.0 mL of scintillation fluid (Scintiverse) and incubated for 24 h. The activity of the tritium was determined in a Beckman LS 7500 liquid scintillation counter. […]

A short description of series [2]: Circular dichroism, helical content. It counts as physicochemical. The settings on record: solvent system in which most membrane polypeptides are strongly helical; FIG. 6. The method, then:
Circular Dichroism (CD). Spectra were recorded on an Aviv model 60 DS circular dichroism spectrophotometer at room temperature with a 1 cm by 1 mm cell. The amplitude of the CD signal was calibrated using 10.1% (w/v) solution of d (+)-camphorsulfonic acid (Aldrich) and the wavelength of the CD signal was set using standard absorbance peaks of benzene vapor. Polypeptide ccncentrations were determined in a Cary 210 UV spectrophotomer wwith the absorbance measured at 280 nm. Helical content was estimated using CD signal intensity according to the method of Chen. et al Biochem. 13:[…] (1974). This calculation compares the experimental ellipticity at. 222 nm ( [θ]222) ( [θ]) to a theoretical [θ]222. The theoretical [θ]222 is empirically adjusted to account for differences in polypeptide length and is based on experimental CD data from a series of proteins with known crystal structures. Since both the curve shape and magnitude are important in analysis of a CD spectrum for secondary structure contributions, we also considered qualitatively the contributions to the spectral shapes from different secondary structures using reference curves for poly (L-lysine).
In general terms: Circular dichroism is the unequal absorption of left and right circularly polarised light.

Series [3] deals with norepinephrine receptor sites in thalamic and hypothalamic areas. The note with it: cited from earlier work.
Series [4] concerns dopamine receptor sites in the basal ganglia. The note with it: cited from earlier work.
The conditions of series [5]: in vivo; cited from earlier work.
The conditions of series [6]: basal ganglia, thalamic and hypothalamic areas; cited from earlier work.

Regarding “Polypeptide III: consensus peptide of the dopamine D2 receptor transmembrane domains I-VII (DYAIFVLYASAWLSFNCPFIVTLNIK)”, the “binding of [^3 H]-spiperone (receptor-like functional binding)” value in series [1] is on record as “binding to the neuroleptic agent, spiperone, into a stereoselective, concentration-dependent manner”. For the same molecule, the “helical structure from CD spectrum” value in series [2] is given as “only partially helical”.
`CN(C)CCCN1c2ccccc2Sc2ccc(Cl)cc21` [Chlorpromazine]: the “Blocks NE” value in series [3] is listed as “Yes++”. Further, the “Blocks DA” value in series [4] is listed as “Yes++”.
Take `CN1CCN(C2=Nc3cc(Cl)ccc3Nc3ccccc32)CC1` [clozapine]: the motor side effects entry in series [5] was “apparently capable of producing less motor side effects”.
On to `COC(=O)[C@H]1[C@H]2C[C@@H]3c4[nH]c5cc(OC)ccc5c4CCN3C[C@H]2C[C@@H](OC(=O)c2cc(OC)c(OC)c(OC)c2)[C@@H]1OC` [Reserpine], for which, in series [6], the “concentrations of norepinephrine and dopamine” value is on record as “reduces”.
Turning to `CN1CCN(CC/C=C2/c3ccccc3Sc3ccc(S(=O)(=O)N(C)C)cc32)CC1` [Thiothixene], in series [3], the “Blocks NE” value is reported as “Yes+++”. Moreover, the “Blocks DA” value in series [4] is “Yes+”.
For the molecule `O=C(CCCN1CCC(O)(c2ccc(Cl)cc2)CC1)c1ccc(F)cc1` [Haloperidol], in series [3], the “Blocks NE” value is given as “Yes+”. The “Blocks DA” value in series [4] is given as “Yes++++”.
